In one data set the target is T1, CypA (Homo sapiens, UniProt P62937).
T1 construct: GST (N, cleaved yes); made in house; host or cells: E. coli (pGEX-KG)
Kind of data set: SPR binding of WJCPA-126 or CsA to CypA. On the procedure:
Example 4: Molecular Docking Analysis by Surface Plasmon Resonance (SPR)
CypA protein was fixed on the sensor chip surface via free amine coupling by injecting a mixture of 0.1 M 1-ethyl-3-(3-dimethylaminopropyl) carboimidehydrochloride and 0.05 M N-hydroxysuccinimide thereon, and the extra activated carboxylic acid was inhibited using 1M ethanolamine (pH 8.5). The second reference cell was treated similarly while excluding the target protein. All working peptide dilutions were prepared in running buffer (PBS containing 0.2% DMSO) and injected at a rate of 30 μL/min for 3 minutes (association time) and dissociation phase was performed for 3 minutes. Nonspecific background was substracted from each sensogram using SPR_V4017 data collection and alignment program (Reichert, Depew, N.Y.). […] Optimum kinetic parameters were obtained by global fitting analysis using Scrubber2 (Biologic Software, Australia).
Background: SPR reads the build-up and loss of mass on a sensor chip optically.

For the next data set, the target named is T2, CypB (Homo sapiens, UniProt P23284).
T2 construct: GST (N); made in house; host or cells: E. coli (pGEX-KG)
T2 sequence (P23284 34-216, species assumed): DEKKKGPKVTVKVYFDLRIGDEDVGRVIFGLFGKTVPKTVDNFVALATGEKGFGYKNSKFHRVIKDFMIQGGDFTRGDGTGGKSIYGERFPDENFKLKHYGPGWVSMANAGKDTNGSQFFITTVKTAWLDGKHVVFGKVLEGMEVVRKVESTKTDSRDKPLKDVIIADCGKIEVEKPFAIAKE
Kind of data set: SPR binding of WJCPA-126 to CypB. The settings on record: SPR-based kinetic analysis.

In another data set the test system is IL-2 production. Kind of data set: IL-2 concentration by ELISA in splenocytes. In kind it is cell-based, mouse. The settings on record: up to 10 μM; FIG. 9c. The procedure: Upon incubation, the cultures from three different wells were collected and IL-2 concentration was analyzed by ELISA according to the protocol by Enzo life Science (Plymouth Meeting, Pa., USA). IL-2 concentration was calculated based on the IL-2 standard solution.
Background: ELISA stands for enzyme-linked immunosorbent assay.

Another data set is described as follows: in vitro. In kind it is cell-based, hepatitis C virus. The settings on record: genotype 2a JFH1; FIG. 11b.
Data set [1] concerns genotype 2a (JFH1) replication cells. Kind of data set: microbe, parasite or virus in culture. In kind it is cell-based, hepatitis C virus. As to conditions: Hepatitis C virus.
Data set [2] concerns the target T3, GST-CypA and NS5A or NS5B (Homo sapiens, UniProt P62937).
T3 construct: made in house; host or cells: E. coli (pGEX-KG)
Nature of the data set: GST pull-down assay of CypA with NS5A or NS5B. Format: binding. As to conditions: 2 μM and 4 μM; FIG. 12b. The procedure: Example 15: Expression and Purification of GST Proteins
A plasmid pGEX-KG was used for the expression of recombinant proteins in E. coli. GST-CypA, a mutant GST-CypAR55A (a mutation at PPIase site), GST-CypB, GST-NS5A, and the full length GST-NS5B were prepared by a standard replication process. The bacteria expression vector, pGEX-KG, was transformed into TOPIOF cells (Promega, Madison, Wis., USA). The bacteria culture was grown in LB medium containing 100 μg/mL of ampicillin until the optical density at 600 nm reached 0.8 to 1.0. Then, 0.1 mM isopropyl β-D-1-thiogalactopyranoside (IPTG) was added thereto to induce the expression of a GST fusion protein and incubated further at 30° C. for 4 hours. The resulting bacteria was pelleted by centrifugation at 340 g for 20 minutes at 4° C., resuspended in 10 mL PBST (PBS containing 1% Triton X-100), added with 1 mM PMSF, and subjected to sonication at 25% amplitude with a brake at intervals of 10 seconds for 30 minutes. Upon sonication, the bacteria extract was centrifuged at 340 g for 5 minutes at 4° C. and the supernatant containing GST protein was stored at −80° C. The GST fusion protein was cleaved in thrombin-cleaving buffer containing 50 units of thrombin overnight so that the recombinant proteins could be released from the GST-tagged glutathione resin. […]

Data set [3] has as its system STAT1, STAT2, IRF9, OAS1, and ISG15. Nature of the data set: Real-time qRT-PCR of interferon-stimulated genes in HCV replicon cell. In kind it is cell-based, human. The settings on record: 2 μM; FIG. 14. The procedure: (§1) Example 19: Real-Time Quantitative Reverse Transcriptase PCR Analysis
(§2) Real-time quantitative reverse transcriptase PCR (qRT-PCR) was performed using SYBR Green PCR Master Mix (Invitrogen/Applied Biosystem, Carlsbad, Calif., USA) and ABI Prism 7300 Real-time PCR System (Applied Biosystems, Carlsbad, Calif., USA) according to the manufacturer's instructions. Calculations were performed based on […] method using the following equation: R (ratio)=2-[ΔCT (sample)-ΔCT (control group)]. The data were expressed as fold change of the treated group relative to the control group and standardized relative to the glyceraldehyde 3-phosphate dehydrogenase (GAPDH) level.
Background: In qPCR the cycle at which signal appears reflects the starting amount.

A further data set concerns IFN-α. Nature of the data set: IFN-α mRNA and IFN-α ELISA in HCV replicon cell. In kind it is cell-based, human. The procedure:
Example 11: Determination of IL-8 and INF-α Concentrations in Cell Culture Media by ELISA
Upon incubation, the cell culture media were collected and the IL-8 and IFN-α concentrations were analyzed according to the protocol of eBioscience (San Diego, Calif., USA) by ELISA.
as §1, §2

Another data set deals with HCV replicon cell. Kind of data set: Combined treatment: MTT analysis in HCV replicon cell. In kind it is cell-based, human. The procedure:
Example 9: Analysis of Cytotoxicity
Cytotoxicity was analyzed in a 96-well plate using 5 mg/mL of MTT (3-(4,5-dimethylthiasol-2-yl)-2,5-diphenyltetrazolium bromide). The optical density of cells was measured at 550 nm using a microplate reader (Bio-Rad, Richmond, Calif., USA). Cell viability rate was expressed in percentage of the absorbance of treated cells relative to the absorbance of untreated cells.

T1 sequence (P62937 whole entry): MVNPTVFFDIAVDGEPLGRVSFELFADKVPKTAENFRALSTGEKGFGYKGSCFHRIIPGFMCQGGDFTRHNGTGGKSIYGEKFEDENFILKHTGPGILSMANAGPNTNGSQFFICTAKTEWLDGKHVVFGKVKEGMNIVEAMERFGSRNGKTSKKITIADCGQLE
T3 sequence (P62937 whole entry): as above
Experimental for Toxicity in BALB/c mice: The experimental animals were divided into three groups (n=5) and one of the groups was used as the untreated control group. […] Fourteen days after the administration, blood samples were collected from the treat groups and the control group, respectively. The weight of experimental mice was measured for the evaluation of systemic toxicity in mice. For the confirmation of hepatotoxicity, the AST and ALT activities were measured according to the manufacturer's protocols applied to a 96-well microplate using the GOT-GPT kit (Asan Pharm, Korea). The analysis results regarding the AST and ALT activities were shown in IU/L units. For the confirmation of nephrotoxicity, the blood urea nitrogen (BUN) was measured using the Blood Urea Nitrogen Enzymatic Assay kit (Bioo Scientific, Austin, Tex., USA), and the creatine level in the serum was measured using the Mouse Creatine Assay kit (Crystal Chem, Inc., Downers Grove, Ill., USA).

As to `COc1cc(C(C(=O)NC2CCCCC2)N(C(=O)Cc2c[nH]c3ccccc23)c2ccc(C(C)C)cc2)cc(OC)c1OC` (stereo not drawn) [WJCPA-126, N-cyclohexyl-2-[(2-1H-indol-3-yl-acetyl)-(4-isopropyl-phenyl)-amino]-2-(3,4,5-trimethoxy-phenyl)-acetamide], at CypA (SPR), the “Koff (dissociation rate)” value is listed as 6.0×10^−4 S^−1 and the Kon is given as 8.2×10^3 M^−1 S^−1. At CypA (SPR-based kinetic analysis, CypA), this molecule yielded a Kd of 520 nM. In addition, at CypB, the affinity, expressed as Kd, was 2100 nM. For the same molecule, in the data set on IL-2 production, the “ionomycin-induced IL-2 production” value is given as “did not show any inhibitory activity”. This molecule showed a CC50 in the data set “in vitro” of 22300 ± 4230 nM. In [1], this molecule registered an EC50 of 1100 ± 50 nM. Moreover, in [2], the “binding between GST-CypA and NS5A or NS5B” value is “significant decrease of the binding between GST-CypA and NS5A or NS5B”. Besides, the “mRNA expression levels of STAT1, STAT2, IRF9, OAS1, and ISG15” value in [3] is “increase the mRNA expression levels of STAT1, STAT2, IRF9, OAS1, and ISG15 in a time-dependent manner”. Also, in the data set with IFN-α (48 hours after the treatment, FIG. 15d), the “mRNA level of IFN-α” value is recorded as “cannot control the mRNA level of IFN-α”. Also, the “IFN-α production (ELISA)” value with IFN-α (FIG. 15e) is given as “significantly increase the IFN-α production”. Moreover, the “cytotoxicity in combined treatment” value in the data set on HCV replicon cell (in combination with IFN-α, RBV, or telaprevir, FIG. 16a) is given as “did not show any noticeable cytotoxicity”. Besides, the “cell viability in combined treatment” value in the data set on HCV replicon cell (in combination with interferon-α, ribavirin, or telaprevir) is not below 80%. Besides, the “serum ALT and AST” value in “Toxicity in BALB/c mice” (50 mg/kg for 2 weeks, FIG. 17b, 17c) was “No difference was observed”. Besides, in “Toxicity in BALB/c mice” (50 mg/kg intraperitoneally daily, 14 days, FIG. 17), the “safety parameters (body weight, serum ALT, AST, BUN, creatinine)” value was “did not induce any noticeable change on safety parameters”.

The Kd is the constant that tells how readily two partners part at equilibrium. A lower Kd goes with higher affinity. What is called CC50 is the concentration that lowers cell viability or growth by half. Low readings indicate harm at low concentration, high ones better tolerance by the cells. The EC50 is the concentration at which the effect is half-maximal. Higher therefore signals a need for much substance.

(Values after patent US10064843B2, “Bis-amide derivative and use thereof” (University-Industry Cooperation Group of Kyung Hee …, priority 2013, dated 2018).)
